Earlier results in US20230338375A1, “SUBSTITUTED PYRIDAZINONES FOR USE IN THE TREATMENT OF NEUROMUSCULAR DISEASES” (Edgewise Therapeutics, Inc., priority 2020, published 2023).

Test system: embryos from zebrafish model of DMD
Settings: Li and Arner, PLoSONE, 2015

Cc1ccc(S(=O)(=O)NCc2ccccc2)cc1 [BTS, N-benzyl-p-tolyl-sulfonamide]
protection from pathological muscle derangement: protect muscles from pathological muscle derangement
